The values below come from publication PMC9671208, “Synthesis, biological evaluation, and molecular docking of novel hydroxyzine derivatives as potential AR antagonists” (Frontiers in Chemistry, 2022).

One data set relates to DU145. The experiment in a line: CCK-8 cytotoxicity assay, DU145. It counts as cell-based, human. To be noted: for IC50: Homo sapiens, DU-145, DU145 cells, CCK-8, 24 h, mean ± SD of three experiments. On the procedure:
(§1) Cell proliferation was measured using the CCK-8 assay kit ([Kaspers et al., 1997]; [Kaspers et al., 1998]; [Ding et al., 2010]). Cells were seeded into 96-well plates (>5*10^4) with approximately 100 ul of cell suspension per well and incubated in 37°C incubator for 4 h. Various concentrations of the compounds were then added and incubated for a further 24 h in a 37°C incubator. Finally, 10 ul CCK8 was added and incubated for 0.5–4 h, absorbance at 450 nm was determined. ([Guo et al., 2021]; [He et al., 2022a]; [Hu et al., 2022]).
(§2) The in vitro cytotoxic activity results of the synthesized derivatives 3–17 against human prostate cancer lines (PC-3, LNCaP, and DU145) and the human prostate epithelial cell line (WPMY-1) were evaluated, as shown in Table 1.
In general terms: Tetrazolium dyes change colour on reduction, which living cells bring about.

Another data set deals with PC-3. Kind of data set: CCK-8 cytotoxicity assay, PC-3. It counts as cell-based, human. Conditions: for IC50: Homo sapiens, PC-3 cells, CCK-8, 24 h, mean ± SD of three experiments. On the procedure:
as §1, §2

For another data set, the system named is LNCaP. The experiment in a line: CCK-8 cytotoxicity assay, LNCaP. It counts as cell-based, human. To be noted: for IC50: Homo sapiens, LNCaP cells, CCK-8, 24 h, mean ± SD of three experiments. On the procedure:
as §1, §2

For another data set, the system named is WPMY-1. Kind of data set: CCK-8 cytotoxicity assay, WPMY-1 normal prostate epithelial cells. It counts as cell-based. Conditions: WPMY-1 normal human prostate epithelial cells, CCK-8, 24 h; mean ± SD of three experiments. The procedure: as §1, §2
Another data set deals with T1, AR (Homo sapiens, UniProt P10275).
T1 sequence (P10275 1-920): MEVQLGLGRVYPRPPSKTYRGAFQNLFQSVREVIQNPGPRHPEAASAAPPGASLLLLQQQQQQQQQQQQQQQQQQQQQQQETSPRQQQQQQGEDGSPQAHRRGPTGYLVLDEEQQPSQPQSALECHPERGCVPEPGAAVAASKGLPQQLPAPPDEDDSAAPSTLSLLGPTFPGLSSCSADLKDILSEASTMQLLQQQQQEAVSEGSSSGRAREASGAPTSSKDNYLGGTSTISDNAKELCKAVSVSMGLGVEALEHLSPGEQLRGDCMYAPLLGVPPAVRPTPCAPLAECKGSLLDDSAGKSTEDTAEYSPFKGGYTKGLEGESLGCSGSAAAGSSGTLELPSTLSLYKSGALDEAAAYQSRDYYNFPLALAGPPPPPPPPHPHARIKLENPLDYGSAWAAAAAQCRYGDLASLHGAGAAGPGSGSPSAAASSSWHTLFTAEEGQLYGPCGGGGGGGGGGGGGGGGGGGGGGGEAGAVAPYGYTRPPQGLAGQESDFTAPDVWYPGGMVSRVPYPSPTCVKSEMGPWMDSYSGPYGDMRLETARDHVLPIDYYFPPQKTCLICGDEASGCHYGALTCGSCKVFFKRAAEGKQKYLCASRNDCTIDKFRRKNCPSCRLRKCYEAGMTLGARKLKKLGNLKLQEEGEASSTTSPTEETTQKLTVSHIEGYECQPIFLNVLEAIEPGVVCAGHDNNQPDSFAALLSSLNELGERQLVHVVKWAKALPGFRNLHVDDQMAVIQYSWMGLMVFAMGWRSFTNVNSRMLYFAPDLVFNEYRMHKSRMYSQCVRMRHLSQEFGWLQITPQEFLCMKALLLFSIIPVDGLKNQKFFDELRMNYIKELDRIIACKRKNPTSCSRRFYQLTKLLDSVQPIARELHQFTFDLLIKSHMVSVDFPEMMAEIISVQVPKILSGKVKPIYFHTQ
Kind of data set: AR reporter gene (luciferase) assay. Format: cell-based. To be noted: read-out: AR antagonistic activity % (10 μM). The procedure: Firefly and Renilla luciferase activities, were determined using the Dual-Glo™luciferase assay kit. RLUs were determined using the GloMax®96-Microplate Luminometer.

The compound `COc1ccc(C(c2ccccc2)N2CCN(Cc3ccc(CCO)cc3)CC2)cc1` (stereo not drawn) [Compound 6, 2-(4-((4-((4-methoxyphenyl)(phenyl)methyl)piperazin-1-yl)methyl)phenyl)ethan-1-ol] had a melting point of 116 to 117 °C. Further, in the data set with DU145, the “cytotoxic activity against DU145 cells (in words)” value is given as “strong cytotoxic activities” and the IC50 was 2.17 ± 0.72 µM. Also, in the data set on PC-3, the “cytotoxic activity against PC-3 cells (in words)” value is on record as “strong cytotoxic activities” and the half-inhibitory concentration (IC50) stood at 3.15 ± 0.48 µM. In the data set on LNCaP, the “cytotoxic activity against LNCaP cells (in words)” value is reported as “strong cytotoxic activities” and the IC50 amounted to 6.17 ± 1.02 µM. Besides, the IC50 in the data set on WPMY-1 is above 50 µM. For the same compound, the inhibition at 10 µM on AR stood at 30.75 ± 0.17%.
`OCCc1ccc(CN2CCN(Cc3ccccc3)CC2)cc1` [Compound 11, 2-(4-((4-benzylpiperazin-1-yl)methyl)phenyl)ethan-1-ol] gave a melting point of 119 to 120 °C. Moreover, 11.3 ± 0.27 µM corresponded to half-maximal inhibition in the data set with DU145 (IC50). Also, the IC50 in the data set on PC-3 amounted to 20.4 ± 0.48 µM. The compound also registered an IC50 in the data set with LNCaP of 11.2 ± 0.14 µM. In the data set on WPMY-1, this compound showed an IC50 above 50 µM. Moreover, the inhibition at 10 µM at AR stood at 65.15 ± 0.57%.

Usually IC50 stands for the concentration that gives 50% inhibition. A higher IC50 goes with a need for much substance. In general, melting point refers to the temperature of the solid-liquid transition.
